{"source": "patent US20100292205A1", "about": "“Pyrimidone Compounds As GSK-3 Inhibitors” (PFIZER INC., priority 2006, published 2010)", "molecular_target": "T1, Recombinant human GSK3β (Homo sapiens, UniProt P49841)", "T1 construct": "His-tag; made in house; host or cells: Sf9 insect cells / baculovirus", "T1 sequence (P49841 whole entry)": "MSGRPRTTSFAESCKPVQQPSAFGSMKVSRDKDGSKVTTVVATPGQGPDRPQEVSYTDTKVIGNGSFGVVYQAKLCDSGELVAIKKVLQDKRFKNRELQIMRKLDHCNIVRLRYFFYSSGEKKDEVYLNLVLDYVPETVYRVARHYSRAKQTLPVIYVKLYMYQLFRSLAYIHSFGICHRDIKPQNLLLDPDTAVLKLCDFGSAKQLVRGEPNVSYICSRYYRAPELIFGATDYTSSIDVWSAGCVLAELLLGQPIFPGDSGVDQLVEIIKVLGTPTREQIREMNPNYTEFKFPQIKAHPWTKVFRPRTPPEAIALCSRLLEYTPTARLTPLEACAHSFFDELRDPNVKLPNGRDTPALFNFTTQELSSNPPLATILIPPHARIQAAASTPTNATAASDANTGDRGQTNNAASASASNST", "experiment": "GSK-3β (Glycogen Synthase Kinase) cell free enzyme assay", "assay_type": "biochemical", "conditions": "for IC50: cell free enzyme assay; for inhibition at 1 µM: read-out: Percent inhibition at 1 μM", "how_it_was_run": "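Recombinant human GSK3β, expressed in SF9/baculovirus cells and His-tag purified on Ni-NTA Superflow, was preincubated with test agent for 30 minutes at room temperature. Substrate mix was then added to start the reaction in 8 mM MOPS (pH 7.0), 10 mM magnesium acetate, 0.2 mM EDTA, 1 mM DTT, 2 uM cold ATP, 0.025 uCi/well [33P]ATP (120 uL) and 1.0 uM biotinylated peptide. Reactions ran at RT for 60 min.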", "note": "Where two headings read alike, the source gives them in different places."}
{"smiles": "CCN(c1nc(-c2ccncc2)cc(=O)n1C)C1CCN(C(=O)OC(C)(C)C)C1", "note": "(stereo not drawn) [Example 13, tert-butyl 3-[Ethyl(1-methyl-6-oxo-4-pyridin-4-yl-1,6-dihydropyrimidin-2-yl)amino]pyrrolidine-1-carboxylate]", "values": [{"measurement": "IC50", "setting": "Examples 1-35", "result": 16.5, "unit": "nM"}]}
{"smiles": "CN(c1nc(-c2ccncc2)cc(=O)n1C)C1CCN(S(=O)(=O)Cc2ccccc2)C1", "note": "(stereo not drawn) [Example 194, 2-{[1-(Benzylsulfonyl)pyrrolidin-3-yl](methyl)amino}-3-methyl-6-pyridin-4-ylpyrimidin-4(3H)-one]", "values": [{"measurement": "inhibition at 1 µM", "setting": "Examples 157-199", "result": 90, "unit": "%"}]}
{"smiles": "Cn1c(NCC2CCN(Cc3ccccc3)C2)nc(-c2ccncc2)cc1=O", "note": "(stereo not drawn) [Example 261, 2-{[(1-Benzylpyrrolidin-3-yl)methyl]amino}-3-methyl-6-pyridin-4-ylpyrimidin-4(3H)-one]", "values": [{"measurement": "inhibition at 1 µM", "setting": "Examples 236-262", "result": 70, "unit": "%"}]}
{"smiles": "CSCCC(=O)N1C[C@@H]2[C@H](C1)[C@H]2N(C)c1nc(-c2ccncc2F)cc(=O)n1C", "note": "[Example 102, 6-(3-Fluoropyridin-4-yl)-3-methyl-2-(methyl{(1R,5S,6s)-3-[3-(methylthio)propanoyl]-3-azabicyclo[3.1.0]hex-6-yl}amino)pyrimidin-4(3H)-one]", "values": [{"measurement": "IC50", "setting": "Examples 62-155", "result": 16, "unit": "nM"}]}
{"smiles": "COC(=O)N1C[C@H](F)[C@H](Nc2nc(-c3ccncc3)cc(=O)n2C)C1", "note": "[Example 211, Methyl (3S,4R)-3-fluoro-4-[(1-methyl-6-oxo-4-pyridin-4-yl-16-dihydropyrimidin-2-yl)amino]pyrrolidine-1-carboxylate]", "values": [{"measurement": "inhibition at 1 µM", "setting": "Examples 201-221", "result": 67, "unit": "%"}]}
{"smiles": "CCOC(=O)c1cccc(-n2nnnc2N2C[C@@H]3[C@H](C2)[C@H]3N(C)c2nc(-c3ccncc3F)cc(=O)n2C)c1", "note": "[Example 276, Ethyl 3-{5-[(1R,5S,6s)-6-{[4-(3-fluoropyridin-4-yl)-1-methyl-6-oxo-1,6-dihydropyrimidin-2-yl](methyl)amino}-3-azabicyclo[3.1.0]hex-3-yl]-1H-tetrazol-1-yl}benzoate]", "values": [{"measurement": "IC50", "setting": "Examples 265-291", "result": 6.21, "unit": "nM"}]}
{"smiles": "Cn1c(NC2CN(C(=O)c3ccccc3)C2)nc(-c2ccncc2)cc1=O", "note": "[Example 64, 2-[(1-Benzoylazetidin-3-yl)amino]-3-methyl-6-pyridin-4-ylpyrimidin-4(3H)-one]", "values": [{"measurement": "IC50", "setting": "Examples 62-155", "result": 367, "unit": "nM"}]}
{"smiles": "CN(c1nc(-c2ccncc2F)cc(=O)n1C)[C@H]1[C@@H]2CN(c3nnnn3-c3ccccc3F)C[C@@H]21", "note": "[Example 275, 2-[{(1R,5S,6s)-3-[1-(2-Fluorophenyl)-1H-tetrazol-5-yl]-3-azabicyclo[3.1.0]hex-6-yl}(methyl)amino]-6-(3-fluoropyridin-4-yl)-3-methylpyrimidin-4(3H)-one]", "values": [{"measurement": "IC50", "setting": "Examples 265-291", "result": 1.12, "unit": "nM"}]}
{"smiles": "CCN(C[C@@H]1CCCN1C(=O)OC)c1nc(-c2ccncn2)cc(=O)n1C", "note": "[Example 224, Methyl (2S)-2-{[ethyl(1-methyl-6-oxo-1,6-dihydro-4,4′-bipyrimidin-2-yl)amino]methyl}pyrrolidine-1-carboxylate]", "values": [{"measurement": "IC50", "setting": "Examples 222-234", "result": 1.11, "unit": "nM"}]}
